Assay results: patent US20260337177A1, “TEAD CORE INHIBITORS FOR CANCER THERAPEUTICS” (University of Florida Research Foundation, Incorporated, priority 2023, published 2026)

Columns and labels:
HepG2 cells [1] = assay: Cell cycle analysis by flow cytometry, HepG2; format: cell-based, human; settings: 5 and 10 μM
Procedure: (§1) To study the potential mechanistic pathways responsible for cell proliferation inhibition by compound 22, the change of cell cycle in Huh7 and HepG2 liver cancer cell lines was evaluated. DNA-based cell cycle analysis was performed using flow cytometry. […] To explore whether compound 22 also induces G1 phase arrest in HepG2 cells similar to its effects on Huh7 cells, parallel investigations were performed. […] However, the impact of 22 on inducing G1 phase arrest was less pronounced in HepG2 cells compared to Huh7 cells.
(§2) For cell cycle analysis, cells were fixed with pre-cold 70% ethanol for 30 minutes. Then the cells were washed with PBS and stained with propidium iodide working solution for 30 minutes in the dark. The stained cells were analyzed by flow cytometry. Cell cycle distribution was analyzed using FlowJo_V10 software. For each experiment, 20000 events per sample were recorded. Percentages of cells in G0/G1, S and G2/M phases were calculated and shown in DNA histograms.

HepG2 cells [2] = assay: Colony formation (clonogenic) assay, HepG2; format: cell-based; settings: Homo sapiens, 48 h, read-out: Colony formation, rate of inhibition, HepG2
Procedure: The ability of compound 22 to inhibit the proliferation of liver cancer cell lines Huh7 and HepG2 was further assessed using a clonogenic assay.
Huh7 or HepG2 (500 cells/well) were plated into 6 well plates (500 cells per well) and treated with 0 or 5 μM compound 22. Colonies were grown in the absence of soft agar for 2 weeks in a humidified atmosphere of 5% C02 at 37 ° C Crystal violet blue solution (Sigma) was used to stain the colonies for one hour and fixed in methanol followed by counting under a microscope. Triplicate wells were used for each cell line and three independent experiments were performed.

Huh7 cells [3] = assay: Cell cycle analysis by flow cytometry, Huh7; format: cell-based, human; settings: 5 and 10 μM, 48 hours
Procedure: as §1, §2

CTGF [4] = assay: CTGF protein expression by western blotting in Huh7 cells; format: cell-based, human; settings: dose-dependent
Procedure: Treated Huh7 cells were harvested and lysed in cold RIPA lysis buffer containing […] and phosphatase inhibitors. The protein concentrations were determined using the BCA Protein Assay kit. The prepared protein samples were loaded on and separated by 10% SDS-PAGE gel and then were transferred to PVDF membrane. Blots were blocked for 1 h at RT in blocking buffer and incubated with corresponding primary antibodies: anti-CTGF (ab227180), and anti-GAPDH (ab9485), at 4 ° C overnight. Then the blots were incubated with HRP-conjugated anti-rabbit secondary antibody in blocking buffer for 1.5 h at RT. The membranes were imaged with ChemiDoc MP imaging system.

CTGF [5] = assay: CTGF mRNA expression by RT-qPCR in HepG2 cells; format: cell-based, human; settings: dose-dependent
Procedure: Huh7 and HepG2 liver cancer cells were seeded at 1×10^6 cells/dish and allowed to adhere overnight. The cells were then treated with indicated doses of compounds in medium for 24 hours. The cells were then harvested, and total RNA was purified using the Aurum total RNA mini kit (Bio-Rad #732-6820) according to the manufacturer's instructions. Complementary DNA was synthesized from 500 ng total RNA template by iScript reverse transcription kit (Bio-Rad #1725037) according to the manufacturer's instructions. Real-time PCR reactions utilized 60 ng cDNA and PrimePCR primers from Bio-Rad (Unique Assay ID: human GAPDH-qHsaCEP0041396, human CTGF-qHsaCEP0024255, human CYR61-qHsaCEP0024230) designed for SYBR Green gene expression analysis (Bio-Rad #1726270). All reactions were carried out in triplicate using Quant Studio 3 PCR system (Applied Biosystems). Relative gene expression level was quantified via ΔΔCt method by using GAPDH as an endogenous reference.

Huh7 cells [6] = assay: MTT assay, Huh7 viability; format: cell-based, human; settings: FIG. 9
AML12 cells = assay: AML12 normal liver cell growth inhibition (CCK8); format: cell-based
Huh7 xenograft = assay: Huh7 mouse xenograft model, antitumor efficacy; format: in vivo, NSG mouse
Procedure: Based on the favorable in vitro potency and low toxicity, the in vivo antitumor efficacy of compound 22 was further evaluated in the NSG mouse (NOD scid gamma mouse) xenograft model from human Huh7 cells. Sorafenib, the first-line treatment for primary hepatocellular carcinoma (HCC) patients, served as the control. Compound 22 was tested as a monotherapy and in combination with Sorafenib.
The animals were administered 10 mg/kg of compound 22 twice a week for four weeks via intraperitoneal (IP) injection.
The mice were administered 50 mg/kg of compound 22 every three day for 24 days via intraperitoneal (IP) injection. Sorafenib was administered orally at a dose of 100 mg/kg following the same schedule.
Tumors were implanted by subcutaneous injection of 5×10^6 Huh7 cells in 100 μL of PBS containing 10% matrix gel (Coming, NY, USA), into the right flank of the mouse. When the tumor volume reached about 85 mm^3, mice were randomized into the vehicle control group (n=5) and a treatment group (n=5). The vehicle group (n=5) received the vehicle only (50% phosal 50 PG, 45% miglyol 810 N and 5% polysorbate 80), while the treatment group (n=5) was given compound 22 (50 mg/kg in 50% phosal 50 PG, 45% miglyol 810 N and 5% polysorbate 80) via IP injection every three days. After 24 days, mice were euthanized. Sorafenib (100 mg/kg, every three day) was dissolved in 75% Ethanol and Cremophor EL (1:1) and administered directly into the animals' stomachs using a gastric probe. Tumor size and body weight were measured every 3 days, and tumor volume was estimated using the formula volume=½×length×width^2. Tumor growth inhibition value (TGI) was calculated as TGI (%) [1−Vt/Vc]×100, where Vc and Vt were […].

O=C(CCl)c1c[nH]c2cc(Cl)c(OCc3cccc(C(F)(F)F)c3)cc12 [Compound 22, 2-chloro-1-(6-chloro-5-((3-(trifluoromethyl)benzyl)oxy)-1H-indol-3-yl)ethan-1-one]
Accumulation in G1 phase, HepG2 (HepG2 cells [1]): accumulation of HepG2 cells in the G1 phase | inhibition at 5 µM (HepG2 cells [2]): 59.5% | Percentage of cells in G1 phase, Huh7 (Huh7 cells [3]; control group 36.4%): 58.2% | Proportion of cells in S/G2 phases, Huh7 (Huh7 cells [3]): distinct decrease | CTGF protein expression, Huh7 (CTGF [4]): suppression of CTGF protein production | CTGF mRNA expression, HepG2 (CTGF [5]): significantly inhibited | Huh7 viability, MTT assay (Huh7 cells [6]): inhibits | Toxicity towards normal liver cell line AML12 (AML12 cells): least toxic | Inhibitory rate, AML12 (inhibitory percentage of AML12 cell growth) (AML12 cells; 10 μM, 3 days): 22.1% | Tumor growth inhibition (TGI) rate (Huh7 xenograft; 10 mg/kg IP twice a week for four weeks): 78% | Tumor growth inhibition (TGI) rate (Huh7 xenograft; 50 mg/kg IP every three days for 24 days): 75% | Body weight change (Huh7 xenograft; xenograft mice, FIG. 6C): No significant change
